Results: patent US7803792B2, “Quaternary ammonium compounds” (Asahi Kasei Pharma Corporation, priority 2002, dated 2010)

Key:
[1] = test system: Rat model loaded with high cholesterol diet; test: Blood cholesterol lowering effect in rats fed on a high cholesterol diet (Test Example 1); type: in vivo; details: treatment model; 0.3 mg/kg at a time, oral twice a day; control group = 100%
Description: Blood Cholesterol Lowering Effect in Rats Fed on a High Cholesterol Diet
In this test example, blood cholesterol level lowering effect in rats fed on a high cholesterol diet was tested according to the method described in J. Lipid, Res., 1995, 36, 1098-1105.
That is, a diet containing 0.4% cholesterol and 0.5% of bile acid was given to 7 to 9 weeks old SD (IGS) male rats for 5 days before the test to increase the blood cholesterol level. […] Cholestimide (trade name: CHOLEBINE GRANULE 70% manufactured by MITSUBISHI TOKYO PHARMACEUTICALS, INC.), which is an anion exchange resin, was suspended in distilled water while the test compound was either dissolved or suspended in distilled water. These were forcibly orally administered twice a day every day from the day of beginning of the test (each n=8). After 3 hours from the administration of the drug on the last day of the test, a blood sample was taken from a jugular vein pool and serum cholesterol level was measured to study the effect of the test compound. Further, as a control group, a group (n=8) fed on only high cholesterol diet and given distilled water (1 ml/kg) was prepared and the same test procedure was followed. A commercially available kit was used for the measurement of total cholesterol and HDL cholesterol. The value obtained by subtracting an HDL cholesterol value from the total cholesterol value was taken as an LDL+VLDL cholesterol value. Assuming the LDL+VLDL cholesterol value of the control group, for which the test compound was not used, as 100%, the rate of decrease (percentage of decrease) of LDL +VLDL cholesterol value when a fixed amount of the test compound was used, was determined.

[2] = test system: bile duct partial ligation model; test: Cholestasis-caused hepatopathy model, bile duct partial ligation, protocol A (Test Example 5); type: in vivo, rat; details: 1 mg/kg twice a day 3.5 days, 1% HCO60, average ± standard error; for ALT: controls 417 ± 185 / 384 ± 156; for AST: controls 589 ± 221 / 643 ± 125; for ALP: controls 2318 ± 583 / 2204 ± 327
Description: “Cholestasis-Caused Hepatopathy” Model (Bile Duct Partial Ligation Model)
The “cholestasis-caused hepatopathy” model by partial ligation surgery of bile duct in this test example was handled by referring to the method by Kanno et al. [Kanzo (Liver) 43 Suppl (1): A126, 2002].
That is, the abdomen of a 7 to 10 weeks old SD (IGS) male rat was cut open under anesthesia with pentobarbital and partial ligation surgery of the bile duct was carried out. A blood sample was taken from the femoral vein before the surgery and this was taken as pre-administration value. The test compound and 200 mg/kg of bile acid were forcibly orally administered twice a day for 3.5 days from the next day of the surgery (protocol A). The test compound and 200 mg/kg of bile acid were forcibly orally administered twice a day for 3.5 days without carrying out the partial ligation surgery (protocol B). In both the cases, the test compound was dissolved or suspended in distilled water or an aqueous solution of 1% HCO60 (manufactured by NIPPON CHEMICALS COMPANY, LTD.). […] Moreover, to consider the influence of the surgery, a pseudo operation group (a Sham group) was established as necessary. After 6 hours from the administration of the drug on the last day of the test, a blood sample was taken from the abdominal aorta and AST (GOT), ALT (GPT), and ALP in the blood were measured by using a measurement kit (GOTII-HA TEST WAKO, GPTII-HA TEST WAKO, and ALKALINE PHOSPHER-HA TEST WAKO respectively, all manufactured by WAKO PURE CHEMICAL […], LTD.) with an auto analyzer (NITTECH ANALYZER SUPER Z818).

[3] = test system: Caco 2 cells; test: Toxicity with respect to alimentary canal: cytotoxicity to Caco 2, LDH activity (Test Example 12); type: cell-based, human; details: LDH activity after 2 hours, relative to cytolytic agent = 100%
How it was run: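 Human Caco 2 intestinal cells, cultured 48 hours after seeding at 10,000 cells/well, received test compounds diluted in medium. LDH released into the medium after 2 hours was measured and expressed relative to cytolytic-agent-lysed cells (100%) as cytotoxicity.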

[4] = test system: steatohepatitis model rats; test: Steatohepatitis model, choline-deficient diet (Test Example 15); type: in vivo, rat; details: 3 mg/kg oral once a day for 2 weeks; n = 4; average ± standard error
Source text: In this test example, the steatohepatitis model was examined referring to the method of Okan A., et al. (Dig Dis Sci 47:2389-2397, 2002).
That is, 7 weeks old Wistar rats were fed with a choline-deficient diet (manufactured by Oriental Yeast Co., Ltd.) for 2 weeks to prepare a steatohepatitis model. A suspension of a test compound in an aqueous solution of 0.5% methyl cellulose (manufactured by WAKO PURE CHEMICAL […], LTD.) and an aqueous solution of 0.5% methyl cellulose (manufactured by WAKO PURE CHEMICAL […], LTD.) as a control were orally administered once a day for consecutive 2 weeks. On the day next to the last day of administration, a blood sample was taken from the abdominal aorta and AST (GOT) and ALT (GPT) in the blood were measured by using measuring kits (GOTII-HA TEST WAKO and GPTII-HA TEST WAKO, respectively, the both were manufactured by WAKO PURE CHEMICAL […], LTD.) on an auto analyzer (NITTECH ANALYZER SUPER Z818).

Row | Structure (SMILES) | Rate of decrease (%) of LDL + VLDL [1] [%] | ALT [2] [IU/L] | AST [2] [IU/L] | ALP [2] [IU/L] | Toxicity (%) to Caco 2 ([3]; 3 μM) [%] | Toxicity (%) to Caco 2 ([3]; 10 μM) [%] | Toxicity (%) to Caco 2 ([3]; 30 μM) [%] | ALT [4] [IU/L] | AST [4] [IU/L]
1 | CCCCC1(CCCC)CS(=O)(=O)c2ccc(N(C)C)cc2C(c2cccc(NC(=S)CCCCC[N+]34CCC(CC3)CC4)c2)N1.[Br-] (stereo not shown) [Example 1, 1-{5-[3-(3,3-Dibutyl-7-dimethylamino-1,1-dioxo-2,3,4,5-tetrahydro-1,4-benzothiazepin-5-yl)phenylthiocarbamoyl]pentyl}-1-azoniabicyclo[2.2.2]octane bromide] | 49 | – | – | – | – | – | – | – | –
2 | CCCCC1(CCCC)CS(=O)(=O)c2ccc(N(C)C)cc2C(c2cccc(NC(=S)Nc3ccc(C[N+](C)(C)Cc4ccccc4)cc3)c2)N1.[Br-] (stereo not shown) [Example 3440] | 36 | 155 ± 38 | 309 ± 37 | 1614 ± 189 | <1 | <1 | <1 | 167 ± 93 | 125 ± 34
3 | C#CC[N+](C)(Cc1ccccc1)Cc1ccc(NC(=S)Nc2cccc(C3NC(CCCC)(CCCC)CS(=O)(=O)c4ccc(N(C)C)cc43)c2)cc1 (stereo not shown) [Example 3448] | 20 | 181 ± 79 | 352 ± 210 | 1148 ± 332 | <1 | <1 | <1 | 143 ± 79 | 134 ± 23
4 | CCCCC1(CCCC)CS(=O)(=O)c2ccc(N(C)C)cc2C(c2cccc(NC(=S)Nc3ccc(C[N+]4(Cc5ccccc5)CCC(O)CC4)cc3)c2)N1.[Br-] (stereo not shown) [Example 3605] | 28 | 258 ± 219 | 487 ± 382 | 1489 ± 533 | <1 | <1 | <1 | 121 ± 36 | 80 ± 34
5 | CCCCC1(CCCC)CS(=O)(=O)c2ccc(N(C)C)cc2C(c2cccc(NC(=S)Nc3ccc(C[N+]45CCC(c6ccccc6)(CC4)CC5)cc3)c2)N1.[Br-] (stereo not shown) [Example 3696] | 25 | 191 ± 21 | 325 ± 87 | 1209 ± 125 | <1 | <1 | <1 | 145 ± 34 | 98 ± 23
6 | CCCCC1(CCCC)CS(=O)(=O)c2ccc(N(C)C)cc2C(c2cccc(NC(=S)Nc3ccc(C[n+]4ccc(C(C)(C)C)cc4)cc3)c2)N1.[Br-] (stereo not shown) [Example 3713] | 41 | 163 ± 96 | 280 ± 61 | 1008 ± 289 | <1 | <1 | <1 | 118 ± 36 | 77 ± 37
7 | CCCCC1(CCCC)CS(=O)(=O)c2ccc(N(C)C)cc2C(c2cccc(NC(=S)Nc3ccc(C[n+]4cccc(CCCO)c4)cc3)c2)N1.[Br-] (stereo not shown) [Example 3747] | 48 | 146 ± 70 | 245 ± 81 | 960 ± 259 | <1 | <1 | <1 | 102 ± 50 | 63 ± 86
8 | CCCCC1(CCCC)CS(=O)(=O)c2ccc(N(C)C)cc2C(c2cccc(NC(=S)Nc3ccc(C[n+]4cccc(CCC(=O)OC)c4)cc3)c2)N1.[Br-] (stereo not shown) [Example 3752] | 50 | 165 ± 47 | 358 ± 87 | 1112 ± 184 | <1 | <1 | <1 | 88 ± 45 | 69 ± 98
9 | CCCCC1(CCCC)CS(=O)(=O)c2ccc(N(C)C)cc2C(c2cccc(NC(=S)Nc3ccc(C[n+]4ccccc4CCC)cc3)c2)N1.[Br-] (stereo not shown) [Example 5408] | 43 | 197 ± 45 | 198 ± 65 | 1005 ± 102 | <1 | <1 | <1 | 149 ± 38 | 103 ± 45
